# According to patent publication US10065990B2, “Cyclic peptide compound, and preparation method, pharmaceutical composition and use thereof” (HANGZHOU GUANYU BIO-MEDICAL CO., LTD, priority 2013, dated 2018):
# Where two headings read alike, the source gives them in different places.
# Tests used:
# [1] = system: HCC827 (human non-small cell lung cancer cells); assay: MTT cancer cell growth inhibition; type: cell-based; settings: Homo sapiens, HCC827, 72 h, read-out: GI50 HCC827
# Text: (§1) MTT assay principle is yellow MTT can penetrate membrane into the cell, succinic dehydrogenase of the mitochondria in living cells can make exogenous MTT reduction of insoluble in water of blue-violet acicular formazan for crystallization and deposition in the cell, crystallization can be dissolved dimethyl sulfoxide (DMSO) solution, detected its absorbance at 490 nm/570 nm wavelength by enzyme-linked immunosorbent assay, which can reflect the number of cells.
# (§2) Using DMEM+10% FBS culture medium or using 1640+10% FBS culture, respectively.
# (§3) a) Cells were seeded in 96-well plates with the inoculation of 1500/well, 190 μl/hole, 37° C., 5% of CO2 incubator overnight;
# (§4) b) The next day each well was added 10 μl of different drugs. The final concentration of drug was 10^−5˜10^−10M, three parallel holes; 37° C., 5% CO2 culture incubator for 72 hours incubation;
# (§5) c) Per well was added 20 μl 5 mg/ml of MTT, 37° C., 5% CO2 culture incubator for 4 hours incubation;
# (§6) d) The supernatant was discarded. Each well was added 100 μl of DMSO and oscillation;
# (§7) e) 570 nm readings. Calculate cell viability. GI50 calculation based on the results.
# [2] = system: MDA-MB-231 (breast cancer cells); assay: MTT cancer cell growth inhibition; type: cell-based
# Text: as §1, §2, §3, §4, §5, §6, §7
# [3] = system: DU145 (human prostate cancer cells); assay: MTT cancer cell growth inhibition; type: cell-based; settings: Homo sapiens, DU-145, 72 h, read-out: GI50 Du1
# Text: as §1, §2, §3, §4, §5, §6, §7
# [4] = system: KBM-5 (human chronic myelogenous leukemia); assay: MTT cancer cell growth inhibition; type: cell-based; settings: read-out: GI50 KBM-5
# Text: as §1, §2, §3, §4, §5, §6, §7
# [5] = system: U937 (human leukemia cells); assay: MTT cancer cell growth inhibition; type: cell-based; settings: Homo sapiens, U-937, 72 h, read-out: GI50 U93
# Text: as §1, §2, §3, §4, §5, §6, §7
# [6] = system: BGC-823 (human gastric cancer cells); assay: MTT cancer cell growth inhibition; type: cell-based; settings: read-out: GI50 BG
# Text: as §1, §2, §3, §4, §5, §6, §7
# [7] = system: HT1080 (human fibrosarcoma cells); assay: MTT cancer cell growth inhibition; type: cell-based; settings: Homo sapiens, HT-1080, 72 h, read-out: GI50 HT1
# Text: as §1, §2, §3, §4, §5, §6, §7
# [8] = system: H1975 (non-small cell lung adenocarcinoma); assay: MTT cancer cell growth inhibition; type: cell-based; settings: Homo sapiens, NCI-H1975, 72 h, read-out: GI50 H1975
# Text: as §1, §2, §3, §4, §5, §6, §7
# [9] = system: N-87 (human gastric cancer cells); assay: MTT cancer cell growth inhibition; type: cell-based; settings: read-out: GI50 N-87
# Text: as §1, §2, §3, §4, §5, §6, §7
# [10] = system: Bel-7402 (human hepatoma cells); assay: MTT cancer cell growth inhibition; type: cell-based; settings: Homo sapiens, Bel-7402, 72 h, read-out: GI50 Bel-7402
# Text: as §1, §2, §3, §4, §5, §6, §7
# [11] = system: Huh-7 (human hepatoma cells); assay: MTT cancer cell growth inhibition; type: cell-based; settings: Homo sapiens, Huh-7, 72 h, read-out: GI50 Huh-7
# Text: as §1, §2, §3, §4, §5, §6, §7
# [12] = system: MOLT-4 (human acute lymphoblastic leukemia cells); assay: MTT cancer cell growth inhibition; type: cell-based; settings: Homo sapiens, MOLT-4, 72 h, read-out: GI50 Mol
# Text: as §1, §2, §3, §4, §5, §6, §7
# [13] = system: K562 (human leukemia cells); assay: MTT cancer cell growth inhibition; type: cell-based; settings: read-out: GI50 K562
# Text: as §1, §2, §3, §4, §5, §6, §7
# [14] = system: Hela (human cervical cancer cells); assay: MTT cancer cell growth inhibition; type: cell-based; settings: read-out: GI50 Hela
# Text: as §1, §2, §3, §4, §5, §6, §7
# [15] = system: PANC-1 (Pac-1, human pancreatic cancer cells); assay: MTT cancer cell growth inhibition; type: cell-based; settings: Homo sapiens, PANC-1, 72 h, read-out: GI50 PAN
# Text: as §1, §2, §3, §4, §5, §6, §7
# [16] = system: SGC-7901 (human gastric cancer cells); assay: MTT cancer cell growth inhibition; type: cell-based; settings: read-out: GI50 SGC-7901
# Text: as §1, §2, §3, §4, §5, §6, §7
# [17] = system: lncap (prostate cancer cells); assay: MTT cancer cell growth inhibition; type: cell-based; settings: read-out: GI50 lnca
# Text: as §1, §2, §3, §4, §5, §6, §7
# [18] = system: KBM5-T315I (human chronic myelogenous leukemia); assay: MTT cancer cell growth inhibition; type: cell-based; settings: Homo sapiens, 72 h, read-out: GI50 KBM5-T315I
# Text: as §1, §2, §3, §4, §5, §6, §7
# [19] = system: A549 (human lung cancer cells); assay: MTT cancer cell growth inhibition; type: cell-based; settings: Homo sapiens, A549, 72 h, read-out: GI50 A54
# Text: as §1, §2, §3, §4, §5, §6, §7
# HDAC7 = target: T1, HDAC7 (Homo sapiens, UniProt Q8WUI4); assay: HDAC biochemical activity measurement (fluorescent substrate deacetylation);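 also: fluorogenic deacetylation assay using acetyl-lysine substrate at 20 µM, enzyme and compound incubated 30 min at 37 °C, then developer added, fluorescence read at 360/460 nm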; settings: HDAC7; 37° C. 30 minutes
# T1 sequence (Q8WUI4 1-952): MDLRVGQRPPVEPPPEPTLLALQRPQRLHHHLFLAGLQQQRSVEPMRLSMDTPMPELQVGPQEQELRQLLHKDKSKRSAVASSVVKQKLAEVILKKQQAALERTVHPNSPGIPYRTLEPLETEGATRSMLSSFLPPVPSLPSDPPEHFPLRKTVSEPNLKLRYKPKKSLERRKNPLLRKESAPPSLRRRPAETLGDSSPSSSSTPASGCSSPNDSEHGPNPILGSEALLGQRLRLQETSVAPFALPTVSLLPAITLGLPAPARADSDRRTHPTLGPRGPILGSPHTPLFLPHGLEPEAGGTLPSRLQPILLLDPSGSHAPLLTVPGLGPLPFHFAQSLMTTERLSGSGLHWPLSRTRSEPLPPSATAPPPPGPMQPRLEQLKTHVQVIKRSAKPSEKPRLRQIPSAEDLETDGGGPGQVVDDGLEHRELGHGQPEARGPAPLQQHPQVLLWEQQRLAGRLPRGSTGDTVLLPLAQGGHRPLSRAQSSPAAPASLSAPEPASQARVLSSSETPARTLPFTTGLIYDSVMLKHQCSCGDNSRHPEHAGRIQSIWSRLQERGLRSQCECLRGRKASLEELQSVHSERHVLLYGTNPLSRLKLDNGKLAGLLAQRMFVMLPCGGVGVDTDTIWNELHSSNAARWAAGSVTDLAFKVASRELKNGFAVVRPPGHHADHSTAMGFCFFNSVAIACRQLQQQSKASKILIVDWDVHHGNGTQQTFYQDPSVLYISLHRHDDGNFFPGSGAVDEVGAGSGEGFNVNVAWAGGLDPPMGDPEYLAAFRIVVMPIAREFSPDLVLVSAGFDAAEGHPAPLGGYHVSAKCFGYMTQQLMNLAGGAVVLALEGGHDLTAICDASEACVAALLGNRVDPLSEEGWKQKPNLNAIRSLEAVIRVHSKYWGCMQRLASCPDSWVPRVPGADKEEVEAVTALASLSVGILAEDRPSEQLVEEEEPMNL
# [20] = system: MCF-7 (human breast cancer cells); assay: MTT cancer cell growth inhibition; type: cell-based; settings: Homo sapiens, MCF7, 72 h, MCF-7 cells, 72 hours incubation, read-out: GI50 MCF
# Text: as §1, §2, §3, §4, §5, §6, §7
# [21] = MTT, 72 hours incubation, HCC827 cells
# [22] = DU145 cells, MTT, 72 hours incubation
# [23] = U937 cells, MTT, 72 hours incubation
# [24] = HT1080 cells, MTT, 72 hours incubation
# [25] = MTT, 72 hours incubation, H1975 cells
# [26] = MTT, 72 hours incubation, Bel-7402 cells
# [27] = MTT, 72 hours incubation, Huh-7 cells
# [28] = MOLT-4 cells, MTT, 72 hours incubation
# [29] = PANC-1 cells, MTT, 72 hours incubation
# [30] = MTT, 72 hours incubation, KBM5-T315I cells
# [31] = A549 cells, MTT, 72 hours incubation
smiles,measurement,setting,value
"O=C(CCCCCCC(=O)Nc1ccccc1)NO [SAHA, suberoylanilide hydroxamic acid, reference compound]",GI50,[1],16700 nM
same,GI50,"[2]; Homo sapiens, MDA-MB-231, 72 h, read-out: GI50 MDA-MB-231",22500 nM
same,GI50,[3],15200 nM
same,GI50,"[4]; Homo sapiens, KBM5, 72 h",11200 nM
same,GI50,[5],2350 nM
same,GI50,"[6]; Homo sapiens, BGC-823, 72 h",5230 nM
same,GI50,[7],3970 nM
same,GI50,[8],15200 nM
same,GI50,"[9]; Homo sapiens, 72 h",13200 nM
same,GI50,[10],12700 nM
same,GI50,[11],18300 nM
same,GI50,[12],10000 nM
same,GI50,"[13]; Homo sapiens, K562, 72 h",10100 nM
same,GI50,"[14]; Homo sapiens, HeLa, 72 h",30200 nM
same,GI50,[15],7620 nM
same,GI50,"[16]; Homo sapiens, SGC-7901, 72 h",12500 nM
same,GI50,"[17]; Homo sapiens, LNCaP, 72 h",4610 nM
same,GI50,[18],86700 nM
same,GI50,[19],8530 nM
same,IC50 HDAC7,HDAC7,no activity
C/C=C1\NC(=O)c2cc(SC)cc(n2)CNC(=O)C[C@@H](/C=C/CCSC(C)=O)OC(=O)[C@H](C)NC1=O [Compound 184],GI50,[1]; [21],62 nM
same,GI50,"[2]; read-out: GI50 MDA-MB-231, MTT, 72 hours incubation, MDA-MB-231 cells",74 nM
same,GI50,[3]; [22],60 nM
same,GI50,"[4]; MTT, 72 hours incubation, KBM-5 cells",78 nM
same,GI50,[5]; [23],30 nM
same,GI50,"[6]; BGC-823 cells, MTT, 72 hours incubation",50 nM
same,GI50,[7]; [24],80 nM
same,GI50,[8]; [25],58 nM
same,GI50,"[9]; MTT, 72 hours incubation, N-87 cells",42 nM
same,GI50,[10]; [26],56 nM
same,GI50,[11]; [27],38 nM
same,GI50,[12]; [28],30 nM
same,GI50,"[13]; MTT, 72 hours incubation, K562 cells",23 nM
same,GI50,"[14]; Hela cells, MTT, 72 hours incubation",20 nM
same,GI50,[15]; [29],60 nM
same,GI50,"[16]; MTT, 72 hours incubation, SGC-7901 cells",11 nM
same,GI50,"[17]; lncap cells, MTT, 72 hours incubation",20 nM
same,GI50,[18]; [30],43 nM
same,GI50,[19]; [31],110 nM
same,IC50 HDAC7,HDAC7,no activity
C=C1NC(=O)c2ccc(SC)c(n2)CNC(=O)C[C@@H](/C=C/CCSC(C)=O)OC(=O)[C@H](C(C)C)NC1=O [Compound 206],GI50,[20],30 nM
same,GI50,[1]; [21],12 nM
same,GI50,"[2]; Homo sapiens, MDA-MB-231, 72 h, read-out: GI50 MDA-MB-231, MTT, 72 hours incubation, MDA-MB-231 cells",76 nM
same,GI50,[3]; [22],10 nM
same,GI50,"[4]; Homo sapiens, KBM5, 72 h, MTT, 72 hours incubation, KBM-5 cells",27 nM
same,GI50,[5]; [23],60 nM
same,GI50,"[6]; Homo sapiens, BGC-823, 72 h, BGC-823 cells, MTT, 72 hours incubation",20 nM
same,GI50,[7]; [24],10 nM
same,GI50,[8]; [25],75 nM
same,GI50,"[9]; Homo sapiens, 72 h, MTT, 72 hours incubation, N-87 cells",97 nM
same,GI50,[10]; [26],48 nM
same,GI50,[11]; [27],39 nM
same,GI50,[12]; [28],20 nM
same,GI50,"[13]; Homo sapiens, K562, 72 h, MTT, 72 hours incubation, K562 cells",61 nM
same,GI50,[15]; [29],20 nM
same,GI50,"[16]; Homo sapiens, SGC-7901, 72 h, MTT, 72 hours incubation, SGC-7901 cells",82 nM
same,GI50,"[17]; Homo sapiens, LNCaP, 72 h, lncap cells, MTT, 72 hours incubation",70 nM
same,GI50,[18]; [30],39 nM
same,GI50,[19]; [31],50 nM
same,IC50 HDAC7,HDAC7,no activity
